Results taken from patent US12708620B2, “Prodrugs and medical uses thereof” (priority 2018, dated 2026).
“Also recorded” adds a separate entry of the source.

Tests used:
DMS 114 tumor xenograft = experiment: lung cancer (SCLC) xenograft model; format: in vivo, BALB/c Nude Mice; conditions: DMS 114 xenograft; 600 mg/kg IP; hypoxic status confirmed
Method: All animal models were established as xenograft model in BALB/c Nude Mice (6-8 weeks old, 17-23 grams, maintained in standard conditions and diet), following approved IACUC (Institutional Animal Care and Use Committees) protocols. Cpd.11 Ms was formulated using 2% dimethyl sulfoxide (DMSO in water for injection, starting from a Cpd.11 Ms main preparation (100-60 mg/ml in 2% DMSO in water for injection).
After tumor cell inoculation, the animals were checked daily for morbidity and mortality. Before commencement of treatment all animals were weighed and the tumor volumes were measured using a caliper. The treatments were started when the mean tumor size reached approx. 250 mm^3. […] At the time of routine monitoring, the animals were checked for any effects of tumor growth and treatments on normal behavior such as mobility, visual estimation of food and water consumption, body weight gain/loss (body weights were measured daily during the 5-day treatment and thrice weekly after treatment), eye/hair matting and any other abnormal effect. Death and observed clinical signs were recorded on the basis of the numbers of animals within each subset. […] The surrogate endpoint for survival was calculated and indicated as TVx4 (initial tumor volume times 4). […] All data were analyzed in SPSS (Statistical Product and Service Solutions) version 18.0 (IBM, Armonk, NY, U.S.). […]

[1] = water solubility for preparing injection dilution
SW1990 tumor xenograft = experiment: pancreatic cancer xenograft model; format: in vivo, BALB/c Nude Mice; conditions: 600 mg/kg IP, hypoxic status absent, methanesulfonate
[2] = tested on: panel of cancer cell lines; experiment: formation rate of Cpd.11c and Cpd.11d metabolites in cancer cell lines; format: in vitro ADME, human
Source text: FIG. 3: cytotoxicity of Cpd.11 Ms and metabolites in normoxic and anoxic conditions in a panel of human cancer cell lines. […] The same panel of cell lines has been used to calculate the formation rate of Cpd.11c and Cpd.11d metabolites (B). A panel of human cell lines isolated from lung cancer (A-427, […], NCI-460, NCI-H1975), pancreatic cancer (Hs 766T, BxPC-3, Capan-1), and breast cancer (MDA-MB-453, SK-BR-3, EFM-19, Hs578t) has been exposed to synthetic version of Cpd.11c and Cpd.11d metabolites, that present cytotoxic properties also in normoxic conditions (C). The average plating efficiency in the drug-free control wells was 43% under normoxic and 30% under anoxic conditions.

[3] = tested on: pH2AX (Histone H2A.X, Phospho S139) in DMS 114 xenograft; experiment: DNA damage by pH2AX staining with pimonidazole colocalization; format: in vivo, BALB/c Nude Mice; conditions: 6 hours post single 600 mg/kg
Method: To evaluate the impact of Cpd.11 Ms treatment on the induction of DNA damage, histological analysis of pH2AX staining and investigated colocalization of pH2AX and pimonidazole staining was performed in the small cell lung cancer model, DMS 114. DNA damage was assessed at 6 hours post a single administration of Cpd.11 Ms at 600 mg/kg. Pimonidazole Hydrochloride and pH2AX (Histone H2A.X, Phospho S139) antibodies are commercially available (Anti-Pimonidazole Hydrochloride, HP FITC Mab-1, HPI Hypoxyprobe Inc; Anti-Histone H2A.X (Phospho S139) antibody [EP854 (2) Y] ChIP Grade, ab81299, Abcam). From each xenograft sample, 3 non-sequential, 5 μm section levels with 50 μm spacing between each level were obtained. From each level, two or three serial sections were produced and collected on two or three slides depending upon the staining required: i) H&E and Pimonidazole or ii) H&E, Pimonidazole and pH2AX. Sections were then dried overnight at ~37° C. prior to staining. The H&Es were performed on a Leica ST4040 staining platform using harris haematoxylin and 1% eosin. Following antigen retrieval and subsequent protein blocking, the pH2AX antibody was incubated on the study tissue sections at a concentration of 1:48000 for 60 minutes. Following quenching of endogenous Horse Radish Peroxidase (HRP) activity using 3% hydrogen peroxide (aqueous), binding of pH2AX was visualised using a polymer based HRP driven detection system and ImmPACT DAB chromogen giving a brown reaction product at the site of antibody binding. A haematoxylin nuclear counterstain was then applied to the tissue sections. The Pimonidazole (FITC conjugated) antibody was incubated on the study tissue sections at a concentration of 1:5000 for 60 minutes. Following quenching of endogenous Horse Radish Peroxidase (HRP) activity using 3% hydrogen peroxide (aqueous), binding of Pimonidazole was visualised using an HRP conjugated rabbit anti-FITC secondary antibody (HPI Hypoxyprobe Inc, anti-FITC-HRP) and ImmPACT DAB chromogen giving a brown reaction product at the site of antibody binding. […]

## CCN1CCN(C(=O)c2cc(N(CCBr)CCOS(C)(=O)=O)c(S(C)(=O)=O)cc2[N+](=O)[O-])CC1.CS(=O)(=O)O [Cpd.11 Ms, 4-(5-((2-bromoethyl) (2-((methylsulfonyl)oxy)ethyl)amino)-4-(methylsulfonyl)-2-nitrobenzoyl)-1-ethylpiperazin-1-ium methanesulfonate]
DMS 114 tumor xenograft
  Anti-tumor effect: Clear impact,
[1]
  solubility: ≥ 100 mg/mL
SW1990 tumor xenograft; listed as Cpd.11Ms
  Anti-tumor effect: No impact
SW1990 tumor xenograft
  Anti-tumor effect: not observed
[2]
  conversion of Cpd.11 Ms into Cpd.11c and Cpd.11d (FIG. 3B): strong and rapid ratio of conversion
[3]
  DNA damage (pH2AX) in normoxic areas, treated vs vehicle treated animals: not statistically significantly different
[3]; P=0.023, methanesulfonate, 600 mg/kg
  DNA damage (pH2AX), hypoxic (pimonidazole positive) vs normoxic (pimonidazole negative) areas in treated animals: significantly higher DNA damage; also recorded: mostly detected in the hypoxic areas
[3]; P=0.038
  DNA damage (pH2AX) in hypoxic (pimonidazole positive) areas, treated vs vehicle treated animals: significant increase in DNA damage
